In publication PMC7785802, “Therapeutic Efficacy of a Trichinella Spiralis Paramyosin-Derived Peptide Modified With a Membrane-Targeting Signal in Mice With Antigen-Induced Arthritis” (Frontiers in Microbiology, 2020):

Tests used:
[1] = system: mice with antigen-induced arthritis (AIA); assay: Knee joint swelling in antigen-induced arthritis (AIA); format: in vivo, mouse; conditions: 40 μg peptide + 25 μg mBSA in 10 μl PBS intraarticular; days 2, 3 and 4 after induction; n = 6; **p < 0.01
Description: AIA was induced in male C57BL/6J wildtype mice (8–10 weeks of age) according to a previously described protocol (Ebbinghaus et al., [2017]) with minor modifications. Briefly, the mice were intraperitoneally injected with 200 ng pertussis toxin (List Biological Laboratories, California, USA) prior to being subcutaneously immunized with 100 μg methylated bovine serum albumin (mBSA; Sigma-Aldrich, St. Louis, Missouri, USA) emulsified in Freund's complete adjuvant (Sigma-Aldrich). The immune response was boosted with identical subcutaneous mBSA immunizations at 14 and 21 days after the first immunization. At 28 days after the initial immunization, the right knee joint of each mouse was intraarticularly injected with 10 μl PBS as the control, while the left knee joint received either 10 μl PBS only (normal group), 25 μg mBSA (to induce AIA) in 10 μl PBS (AIA-only group), 40 μg modified peptide with 25 μg mBSA in 10 μl PBS (modified peptide+AIA group), or 40 μg original peptide with 25 μg mBSA in 10 μl PBS (original peptide+AIA group). Every day after AIA induction (and intraarticular peptide treatment), the difference in the joint diameter (swelling in mm) between the right and left knee joints in each mouse was assessed using a digital micrometer to evaluate the AIA severity. Each joint was measured three times and the mean diameter was calculated and recorded. […]

mouse ATDC5 cells = assay: Peptide binding to cell surface, confocal laser scanning microscopy; format: cell-based; conditions: biotin-labeled peptide 260 nmol, 540 nmol, 1.08 mmol; streptavidin-FITC, DAPI
Description: The mouse ATDC5 chondrogenic cell line is an important chondrocyte model that has been widely used in the study of chondrocyte proliferation and differentiation. This cell line was used to evaluate the membrane-binding ability of the modified peptide, as articular cartilage (which contains chondrocytes) is one of the main cellular components in the joint cavity. The cells were purchased from Guangzhou Jennio Biotech Co., Ltd. (Guangzhou, China) and maintained in Dulbecco's Modified Eagle Medium (DMEM, ThermoFisher, America) supplemented with 10% fetal bovine serum (FBS, Gibco, Australia) at 37°C in a humidified atmosphere with 5% CO2. The 5th−10th passages of the cells were used in the study.
To assess the binding ability of the modified peptide to the cell membrane, the three peptides were labeled with biotin at the C-terminus. […] The cells were washed and resuspended in PBS and then the binding of the peptides to the cell membrane was assessed by flow cytometry (BD Biosciences, California, USA). […] The binding of the peptides to the cell membrane was then assessed by staining with streptavidin-FITC (eBioscience). […] They were then analyzed by confocal laser scanning microscopy (Leica, Germany).
Figure 3 Modified peptide non-specifically bound to the cell surface. (A) Binding of peptides to the surface of mouse ATDC5 cells measured by flow cytometry. […]

Myr-GSSKSPSKKKKKKPG-ACP-VSMGKSLSSKVYVM [modified peptide, Ts-pmy-derived peptide modified with a membrane-targeting signal]
joint swelling (left vs right knee diameter) compared to AIA-only mice [1]: significant reductions in joint swelling on days 2, 3, and 4 after disease induction
binding to surface of ATDC5 cells (confocal microscopy) (mouse ATDC5 cells): could bind to the surface of mouse ATDC5 cells
